Measurements reported in ChEMBL document CHEMBL3774345, “Synthesis of new diarylamides with pyrimidinyl pyridine scaffold and evaluation of their anti-proliferative effect on cancer cell lines” (Bioorg Med Chem Lett, 2016).

Experiments:
Type in all cases: functional
MDA-MB-435 = test: Cytotoxicity against human MDA-MB-435 cells assessed as cell growth at 10 uM after 24 hrs by SRB assay; details: MDA-MB-435, 24 h, read-out: Activity
MDA-MB-231 = test: Cytotoxicity against human MDA-MB-231 cells assessed as cell growth at 10 uM after 24 hrs by SRB assay; details: MDA-MB-231, 24 h, read-out: Activity
[1] = Cytotoxicity against human IGROV1 cells assessed as cell growth at 10 uM after 24 hrs by SRB assay; details: IGROV-1, 24 h, read-out: Activity
NCI-H460 = test: Cytotoxicity against human NCI-H460 cells assessed as cell growth at 10 uM after 24 hrs by SRB assay; details: NCI-H460, 24 h, read-out: Activity
[2] = Cytotoxicity against human UACC257 cells assessed as cell growth at 10 uM after 24 hrs by SRB assay; details: UACC-257, 24 h, read-out: Activity
[3] = Cytotoxicity against human HCT116 cells assessed as cell growth at 10 uM after 24 hrs by SRB assay; details: HCT-116, 24 h, read-out: Activity
[4] = Cytotoxicity against human OVCAR8 cells assessed as cell growth at 10 uM after 24 hrs by SRB assay; details: OVCAR-8, 24 h, read-out: Activity
SK-MEL-28 = test: Cytotoxicity against human SK-MEL-28 cells assessed as cell growth at 10 uM after 24 hrs by SRB assay; details: SK-MEL-28, 24 h, read-out: Activity
MCF7 = test: Cytotoxicity against human MCF7 cells assessed as cell growth at 10 uM after 24 hrs by SRB assay; details: MCF7, 24 h, read-out: Activity
NCI-H226 = test: Cytotoxicity against human NCI-H226 cells assessed as cell growth at 10 uM after 24 hrs by SRB assay; details: NCI-H226, 24 h, read-out: Activity
M14 = test: Cytotoxicity against human M14 cells assessed as cell growth at 10 uM after 24 hrs by SRB assay; details: M14, 24 h, read-out: Activity
K562 = test: Cytotoxicity against human K562 cells assessed as cell growth at 10 uM after 24 hrs by SRB assay; details: K562, 24 h, read-out: Activity
[5] = Cytotoxicity against human HCC2998 cells assessed as cell growth at 10 uM after 24 hrs by SRB assay; details: HCC 2998, 24 h, read-out: Activity
U-251 = test: Cytotoxicity against human U251 cells assessed as cell growth at 10 uM after 24 hrs by SRB assay; details: U-251, 24 h, read-out: Activity
[6] = Cytotoxicity against human COLO205 cells assessed as cell growth at 10 uM after 24 hrs by SRB assay; details: COLO 205, 24 h, read-out: Activity
[7] = Cytotoxicity against human OVCAR4 cells assessed as cell growth at 10 uM after 24 hrs by SRB assay; details: OVCAR-4, 24 h, read-out: Activity
A549 = test: Cytotoxicity against human A549 cells assessed as cell growth at 10 uM after 24 hrs by SRB assay; details: A549, 24 h, read-out: Activity
KM12 = test: Cytotoxicity against human KM12 cells assessed as cell growth at 10 uM after 24 hrs by SRB assay; details: KM12, 24 h, read-out: Activity
[8] = Cytotoxicity against human TK10 cells assessed as cell growth at 10 uM after 24 hrs by SRB assay; details: TK-10, 24 h, read-out: Activity
A498 = test: Cytotoxicity against human A498 cells assessed as cell growth at 10 uM after 24 hrs by SRB assay; details: A498, 24 h, read-out: Activity
[9] = Cytotoxicity against human OVCAR3 cells assessed as cell growth at 10 uM after 24 hrs by SRB assay; details: OVCAR-3, 24 h, read-out: Activity
MDA-MB-468 = test: Cytotoxicity against human MDA-MB-468 cells assessed as cell growth at 10 uM after 24 hrs by SRB assay; details: MDA-MB-468, 24 h, read-out: Activity
SK-MEL-2 = test: Cytotoxicity against human SK-MEL-2 cells assessed as cell growth at 10 uM after 24 hrs by SRB assay; details: SK-MEL-2, 24 h, read-out: Activity
[10] = Cytotoxicity against human SNB19 cells assessed as cell growth at 10 uM after 24 hrs by SRB assay; details: SNB-19, 24 h, read-out: Activity
[11] = Cytotoxicity against human HCT15 cells assessed as cell growth at 10 uM after 24 hrs by SRB assay; details: HCT-15, 24 h, read-out: Activity
NCI-H522 = test: Cytotoxicity against human NCI-H522 cells assessed as cell growth at 10 uM after 24 hrs by SRB assay; details: NCI-H522, 24 h, read-out: Activity
HT-29 = test: Cytotoxicity against human HT-29 cells assessed as cell growth at 10 uM after 24 hrs by SRB assay; details: HT-29, 24 h, read-out: Activity
[12] = Cytotoxicity against human SW620 cells assessed as cell growth at 10 uM after 24 hrs by SRB assay; details: SW-620, 24 h, read-out: Activity
NCI-H23 = test: Cytotoxicity against human NCI-H23 cells assessed as cell growth at 10 uM after 24 hrs by SRB assay; details: NCI-H23, 24 h, read-out: Activity
[13] = Cytotoxicity against human NCI-ADR-RES cells assessed as cell growth at 10 uM after 24 hrs by SRB assay; details: read-out: Activity
[14] = Cytotoxicity against human Caki1 cells assessed as cell growth at 10 uM after 24 hrs by SRB assay; details: CAKI-1, 24 h, read-out: Activity
[15] = Cytotoxicity against human SF539 cells assessed as cell growth at 10 uM after 24 hrs by SRB assay; details: SF-539, 24 h, read-out: Activity
[16] = Cytotoxicity against human HOP62 cells assessed as cell growth at 10 uM after 24 hrs by SRB assay; details: HOP-62, 24 h, read-out: Activity
786-0 = test: Cytotoxicity against human 786-0 cells assessed as cell growth at 10 uM after 24 hrs by SRB assay; details: 786-0, 24 h, read-out: Activity
[17] = Cytotoxicity against human UACC62 cells assessed as cell growth at 10 uM after 24 hrs by SRB assay; details: UACC-62, 24 h, read-out: Activity
[18] = Cytotoxicity against human PC3 cells assessed as cell growth at 10 uM after 24 hrs by SRB assay; details: PC-3, 24 h, read-out: Activity
[19] = Cytotoxicity against human MOLT4 cells assessed as cell growth at 10 uM after 24 hrs by SRB assay; details: MOLT-4, 24 h, read-out: Activity
[20] = Cytotoxicity against human LOXIMVI cells assessed as cell growth at 10 uM after 24 hrs by SRB assay; details: LOX IMVI, read-out: Activity

Cc1cc(Cl)ccc1C(=O)Nc1cc(-c2cccnc2)nc(NCCCN2CCOCC2)n1
growth at 10 µM (MDA-MB-435): 101% | growth at 10 µM (MDA-MB-231): 97.3% | growth at 10 µM [1]: 109% | growth at 10 µM (NCI-H460): 110% | growth at 10 µM [2]: 95% | growth at 10 µM [3]: 99.8% | growth at 10 µM [4]: 96.9% | growth at 10 µM (SK-MEL-28): 95.3% | growth at 10 µM (MCF7): 90.1% | growth at 10 µM (NCI-H226): 77.6% | growth at 10 µM (M14): 101% | growth at 10 µM (K562): 113% | growth at 10 µM [5]: 100% | growth at 10 µM (U-251): 96.2% | growth at 10 µM [6]: 101% | growth at 10 µM [7]: 97.7% | growth at 10 µM (A549): 87.7% | growth at 10 µM (KM12): 101% | growth at 10 µM [8]: 87.2% | growth at 10 µM (A498): 95.2% | growth at 10 µM [9]: 111% | growth at 10 µM (MDA-MB-468): 88.5% | growth at 10 µM (SK-MEL-2): 106% | growth at 10 µM [10]: 89.8% | growth at 10 µM [11]: 104% | growth at 10 µM (NCI-H522): 82.8% | growth at 10 µM (HT-29): 95.7% | growth at 10 µM [12]: 99% | growth at 10 µM (NCI-H23): 96.7% | growth at 10 µM [13]: 106% | growth at 10 µM [14]: 101% | growth at 10 µM [15]: 91.4% | growth at 10 µM [16]: 91.5% | growth at 10 µM (786-0): 77.2% | growth at 10 µM [17]: 102% | growth at 10 µM [18]: 107% | growth at 10 µM [19]: 98% | growth at 10 µM [20]: 109%

O=C(Nc1cc(-c2cccnc2)nc(NCCCN2CCOCC2)n1)c1ccc(F)cc1Cl
growth at 10 µM (MDA-MB-435): 106% | growth at 10 µM (MDA-MB-231): 93.2% | growth at 10 µM [1]: 95.9% | growth at 10 µM (NCI-H460): 94.8% | growth at 10 µM [2]: 95.4% | growth at 10 µM [3]: 106% | growth at 10 µM [4]: 94.2% | growth at 10 µM (SK-MEL-28): 108% | growth at 10 µM (MCF7): 87.4% | growth at 10 µM (NCI-H226): 108% | growth at 10 µM (M14): 102% | growth at 10 µM (K562): 83.3% | growth at 10 µM [5]: 98.4% | growth at 10 µM (U-251): 92% | growth at 10 µM [6]: 99.5% | growth at 10 µM [7]: 115% | growth at 10 µM (A549): 102% | growth at 10 µM (KM12): 104% | growth at 10 µM [8]: 97.1% | growth at 10 µM (A498): 81.2% | growth at 10 µM [9]: 106% | growth at 10 µM (MDA-MB-468): 93.5% | growth at 10 µM (SK-MEL-2): 91.3% | growth at 10 µM [10]: 94.2% | growth at 10 µM [11]: 94.5% | growth at 10 µM (NCI-H522): 87.1% | growth at 10 µM (HT-29): 87.3% | growth at 10 µM [12]: 90.3% | growth at 10 µM (NCI-H23): 90.5% | growth at 10 µM [13]: 94.5% | growth at 10 µM [14]: 90.3% | growth at 10 µM [15]: 101% | growth at 10 µM [16]: 95.5% | growth at 10 µM (786-0): 89.2% | growth at 10 µM [17]: 105% | growth at 10 µM [18]: 91.2% | growth at 10 µM [19]: 98.4% | growth at 10 µM [20]: 96.5%

COCCCNc1nc(NC(=O)c2cc(Br)cc(C(F)(F)F)c2)cc(-c2cccnc2)n1
growth at 10 µM (MDA-MB-435): 88.4% | growth at 10 µM (MDA-MB-231): 75.8% | growth at 10 µM [1]: 91.3% | growth at 10 µM (NCI-H460): 85.7% | growth at 10 µM [2]: 91% | growth at 10 µM [3]: 85.6% | growth at 10 µM [4]: 87.5% | growth at 10 µM (SK-MEL-28): 98.6% | growth at 10 µM (MCF7): 83.8% | growth at 10 µM (NCI-H226): 91.8% | growth at 10 µM (M14): 96.5% | growth at 10 µM (K562): 73.3% | growth at 10 µM [5]: 114% | growth at 10 µM (U-251): 85.9% | growth at 10 µM [6]: 96.4% | growth at 10 µM [7]: 92.3% | growth at 10 µM (A549): 82% | growth at 10 µM (KM12): 105% | growth at 10 µM [8]: 95.8% | growth at 10 µM (A498): 76.2% | growth at 10 µM [9]: 109% | growth at 10 µM (MDA-MB-468): 82.8% | growth at 10 µM (SK-MEL-2): 80.6% | growth at 10 µM [10]: 95.9% | growth at 10 µM [11]: 85.9% | growth at 10 µM (NCI-H522): 83.5% | growth at 10 µM (HT-29): 83.7% | growth at 10 µM [12]: 86.9% | growth at 10 µM (NCI-H23): 103% | growth at 10 µM [13]: 99.5% | growth at 10 µM [14]: 81.4% | growth at 10 µM [15]: 94% | growth at 10 µM [16]: 91.8% | growth at 10 µM (786-0): 85.8% | growth at 10 µM [17]: 90.5% | growth at 10 µM [18]: 70.6% | growth at 10 µM [19]: 80.1% | growth at 10 µM [20]: 104%
